Data published in US8859545B2, “Tetrahydronaphthyridine and tetrahydropyrido[4,3-D]pyrimidine compounds and compositions thereof useful for the treatment of inflammatory and respiratory diseases” (Evotec AG, priority 2005, dated 2014).
Structures can show the parent of a compound that is named as a salt.

test system: P2X2/3 chimera (P2X2/3C); test: Calcium uptake assay (P2X antagonist assay, agonist-induced calcium influx); format: cell-based; details: at 3 μM (symbol before the slash)
Excerpt: Human P2X3 (Accession no. NM_002559), P2X2 (Accession no. NM_170682) and Rat P2X3 (Accession no. NM_031075) and P2X2 (Accession no. NM_053656) are cloned into a mammalian expression vector (e.g., pcDNA5/TO or pcDNA3 Invitrogen). For coexpression of P2X2 and P2X3, the coding regions of both receptors were cloned into a bicistronic vector using methods similar to those described by Kawashima et al., Receptors Channels 5:53-60, 1998. The P2X2/3 chimera clone was created as described by Neelands et al, and then cloned into an expression vector as above. Receptors are expressed in cells (e.g., HEK293 or 1321N1) via transient transfection using standard lipid mediated transfection, or by creation of stable transfectants for each receptor. Cell lines are maintained in DMEM+5% Glutamax, the appropriate level of selective antibiotic, and 10% heat inactivated FBS.
The agonist EC50 is determined at the start of the assay and compound IC50 experiments are run using a set agonist concentration (EC50-90 depending on cell line) as stimulus. The agonists used are αβMeATP, ATP, or other ATP analogs. Compounds may be tested at concentrations ranging from 1 μM to 10 μM. Functional activity of compounds at the P2X receptor is determined by measuring their ability to inhibit agonist-induced calcium influx. Compounds may be tested for antagonist activity against the P2X2/3 chimera, the P2X3 homomer, or the P2X2/3 heteromer. To test for antagonist activity, cells expressing the appropriate receptor are seeded onto 96 or 384 well plates 18-24 hours prior to assay. On the day of the assay, cells are loaded with calcium-sensitive fluorescent dye (e.g., Fluo-4 no wash reagent-Invitrogen cat# F36206, or the BD™ PBX Calcium Assay Kit-BD cat#640175) in Hank's Buffered Salt Solution (HBSS) with up to 10 mM supplemental CaCl2. Plates are incubated at 37° C. and then equilibrated at room temperature. Antagonism of agonist-induced calcium influx is measured using a fluorescent imaging plate reader. The assay comprises two stages: a pre-treatment phase followed by a treatment phase. Compounds may be tested as follows: For the pre-treatment phase, 50 μL of 3× concentration of test compound in HBSS is added to cells containing 100 μL of dye loading media to achieve a final concentration of 1×. For the treatment phase, at a set interval after pre-treatment, 50 μL of 1× test compound plus 4× agonist solution is added to cells. Fluorescence is measured at 0.1-3 second intervals with an excitation wavelength of 494 nm and an emission wavelength of 515 nm. Responses are measured as peak fluorescence after compound-agonist addition minus baseline fluorescence prior to treatment. Percent inhibition is calculated as follows: […]
A calcium uptake assay was performed as described in paragraphs […] above.

SMILES | Ca Influx P2X2/3C % Inhibition at 3 μM/10 μM
Clc1cccnc1N1CCc2ncnc(Nc3ccccc3)c2C1 [Compound 2, 6-(3-Chloropyridin-2-yl)-5,6,7,8-tetrahydro-N-phenylpyrido[4,3-d]pyrimidin-4-amine] | +/ (compound exhibited 0-25% inhibition at 3 μM)
O=S(=O)(c1ccc(Nc2ncnc3c2CN(c2ncccc2Cl)CC3)cc1)C(F)(F)F [Compound 6, 6-(3-Chloropyridin-2-yl)-5,6,7,8-tetrahydro-N-(4-(trifluoromethylsulfonyl)phenyl)pyrido[4,3-d]pyrimidin-4-amine] | +/ (compound exhibited 0-25% inhibition at 3 μM)
CN1CC(C)(C)c2ccc(Nc3ncnc4c3CN(c3ncccc3Cl)CC4)cc21 [Compound 16, [6-(3-Chloro-pyridin-2-yl)-5,6,7,8-tetrahydro-pyrido[4,3-d]pyrimidin-4-yl]-(3,3-dimethyl-2,3-dihydro-1-methyl-indol-6-yl)-amine] | +/ (compound exhibited 0-25% inhibition at 3 μM)
Cc1ccc(N2CCc3ncnc(NCc4ccc(Cl)cc4)c3C2)nc1 [Compound 25] | ++++/ ^ (compound exhibited 75% or greater inhibition at 3 μM)
COc1cccc(CNc2ncnc3c2CN(c2ccc(C)cn2)CC3)c1 [Compound 28] | ++++ (compound exhibited 75% or greater inhibition at 3 μM)
Cc1ccc(N2CCc3ncnc(NCc4ccccc4Cl)c3C2)nc1 [Compound 30] | ++++/ ^ (compound exhibited 75% or greater inhibition at 3 μM)
Cc1ccc(N2CCc3ncnc(NCCc4ccccc4Cl)c3C2)nc1 [Compound 32] | ++++ (compound exhibited 75% or greater inhibition at 3 μM)
COc1ccc(CCNc2ncnc3c2CN(c2ccc(C)cn2)CC3)cc1 [Compound 35] | ++++/ ^ (compound exhibited 75% or greater inhibition at 3 μM)
Cc1ccc(N2CCc3ncnc(N(C)Cc4ccccc4)c3C2)nc1 [Compound 36] | +/ (compound exhibited 0-25% inhibition at 3 μM)
Cc1ccc(N2CCc3ncnc(NCc4ccc5c(c4)OCO5)c3C2)nc1 [Compound 37] | ++++/ ^ (compound exhibited 75% or greater inhibition at 3 μM)
Cc1ccc(N2CCc3ncnc(NCc4cccc(C(F)(F)F)c4)c3C2)nc1 [Compound 38] | +++/ ^ (compound exhibited 50-75% inhibition at 3 μM)
Cc1ccc(N2CCc3ncnc(NCc4ccccc4C(F)(F)F)c3C2)nc1 [Compound 39] | +++/ ^ (compound exhibited 50-75% inhibition at 3 μM)
Cc1ccc(N2CCc3ncnc(NCc4ccc(OC(F)(F)F)cc4)c3C2)nc1 [Compound 40] | +++/ ^ (compound exhibited 50-75% inhibition at 3 μM)
Cc1ccc(N2CCc3ncnc(NCc4ccccc4OC(F)(F)F)c3C2)nc1 [Compound 42] | ++++/ ^ (compound exhibited 75% or greater inhibition at 3 μM)
Cc1ccc(N2CCc3ncnc(NCc4ccc(C(C)(C)C)cc4)c3C2)nc1 [Compound 44] | +/ (compound exhibited 0-25% inhibition at 3 μM)
Cc1ccc(N2CCc3ncnc(NCCc4ccccc4)c3C2)nc1 [Compound 45] | ++++/ ^ (compound exhibited 75% or greater inhibition at 3 μM)
COc1cccc(CCNc2ncnc3c2CN(c2ccc(C)cn2)CC3)c1 [Compound 46] | ++++/ ^ (compound exhibited 75% or greater inhibition at 3 μM)
COc1ccc(CCNc2ncnc3c2CN(c2ccc(C)cn2)CC3)cc1OC [Compound 47] | +++/ ^ (compound exhibited 50-75% inhibition at 3 μM)
Cc1ccc(N2CCc3ncnc(NCCc4ccc(Cl)cc4)c3C2)nc1 [Compound 48] | ++++/ ^ (compound exhibited 75% or greater inhibition at 3 μM)
Cc1ccc(CCNc2ncnc3c2CN(c2ccc(C)cn2)CC3)cc1 [Compound 49] | ++++/ ^ (compound exhibited 75% or greater inhibition at 3 μM)
Cc1ccc(N2CCc3ncnc(NCc4ccc(C(F)(F)F)cc4)c3C2)nc1 [Compound 50] | ++++/ ^ (compound exhibited 75% or greater inhibition at 3 μM)
COc1cc(CCNc2ncnc3c2CN(c2ccc(C)cn2)CC3)cc(OC)c1 [Compound 51] | +++/ ^ (compound exhibited 50-75% inhibition at 3 μM)

same assay, conditions: at 10 μM (symbol after the slash)

SMILES | Ca Influx P2X2/3C % Inhibition at 3 μM/10 μM
FC(F)(F)c1ccc(Nc2ncnc3c2CN(c2ncccc2Cl)CC3)cn1 [Compound 4, 6-(3-Chloropyridin-2-yl)-N-(6-(trifluoromethyl)pyridin-3-yl)-5,6,7,8-tetrahydropyrido[4,3-d]pyrimidin-4-amine] | /* (compound exhibited 0-25% inhibition at 10 μM)
Cc1ccccc1N1CCc2ncnc(Nc3ccc(C(F)(F)F)cc3)c2C1 [Compound 10, N-(4-(Trifluoromethyl)phenyl)-5,6,7,8-tetrahydro-6-o-tolylpyrido[4,3-d]pyrimidin-4-amine] | /* (compound exhibited 0-25% inhibition at 10 μM)
Cc1ccc(N2CCc3ncnc(Nc4ccc(C(F)(F)F)cc4)c3C2)cc1 [Compound 12, N-(4-(Trifluoromethyl)phenyl)-5,6,7,8-tetrahydro-6-p-tolylpyrido[4,3-d]pyrimidin-4-amine] | /* (compound exhibited 0-25% inhibition at 10 μM)
CC1(C)C(=O)Nc2cc(Nc3ncnc4c3CN(c3ncccc3Cl)CC4)ccc21 [Compound 13, 6-[6-(3-Chloro-pyridin-2-yl)-5,6,7,8-tetrahydro-pyrido[4,3-d]pyrimidin-4-ylamino]-3,3-dimethyl-1,3-dihydro-indol-2-one] | /* (compound exhibited 0-25% inhibition at 10 μM)
CC1(C)CNc2cc(Nc3ncnc4c3CN(c3ncccc3Cl)CC4)ccc21 [Compound 15, [6-(3-Chloro-pyridin-2-yl)-5,6,7,8-tetrahydro-pyrido[4,3-d]pyrimidin-4-yl]-(3,3-dimethyl-2,3-dihydro-1H-indol-6-yl)-amine HCl salt] | /* (compound exhibited 0-25% inhibition at 10 μM)
CC(C)(C)c1ccc(Nc2ncnc3c2CN(c2ncccc2Cl)CC3)cn1 [Compound 17, (6-tert-Butyl-pyridin-3-yl)-[6-(3-chloro-pyridin-2-yl)-5,6,7,8-tetrahydro-pyrido[4,3-d]pyrimidin-4-yl]-amine] | /* (compound exhibited 0-25% inhibition at 10 μM)
Cc1ccc(N2CCc3ncnc(NCC4(O)CCCC(C)(C)C4)c3C2)nc1 (stereo not shown) [Compound 18, 3,3-Dimethyl-1-{[6-(5-methyl-pyridin-2-yl)-5,6,7,8-tetrahydro-pyrido[4,3-d]pyrimidin-4-ylamino]-methyl}-cyclohexanol] | /* (compound exhibited 0-25% inhibition at 10 μM)
Cc1ccc(N2CCc3ncnc(NCc4ccccc4C)c3C2)nc1 [Compound 24] | /**** (compound exhibited 25-50% inhibition at 10 μM)
Cc1ccc(N2CCc3ncnc(NCC4CCCCC4)c3C2)nc1 [Compound 26] | /**** (compound exhibited 25-50% inhibition at 10 μM)
COc1ccccc1CNc1ncnc2c1CN(c1ccc(C)cn1)CC2 [Compound 27] | /**** (compound exhibited 25-50% inhibition at 10 μM)
COc1cccc(CNc2ncnc3c2CN(c2ccc(C)cn2)CC3)c1 [Compound 28] | **** (compound exhibited 25-50% inhibition at 10 μM)
Cc1ccc(N2CCc3ncnc(NCCc4ccccc4Cl)c3C2)nc1 [Compound 32] | **** (compound exhibited 25-50% inhibition at 10 μM)
